Assay [1] deals with T1, MMP-9 (Rattus norvegicus, UniProt P50282). In words: MMP-9 gelatinase activity by gelatin zymogram of conditioned media from C6 glioma cells (basal, TNFα- or PMA-induced). It counts as cell-based. Particulars: for Effect on MMP-9 activity: C6 glioma cells stimulated with TNFα. On the procedure: C6 rat glioma cells (ATCC; CRL-2199) grown on 100 mm petri dishes were detached by trypsinization and cultured to a density of 10^5 cells/well on 24-well plates in DMEM+10% FCS. The TNFα-treated cells which were stimulated to induce gelatinases were incubated, on the next day after plating, for 18 hours in DMEM without serum in the presence of either 20 ng/ml or 40 ng/ml
TNFα (R&D, cat. #410-TRNC). Different concentrations of the tested compound, as indicated, in 0.48% fatty acid free BSA, 0.4% ethanol were added to the cells that were then incubated for a total of 18-24 hours at 37° C. Cells treated with vehicle only served as control group.
Conditioned media (CM) were then collected, centrifuged at 2000 rpm for 5 min., and supernatants were transferred to new tubes. MMP gelatinase activity was determined by using zymogram gels (Invitrogen, cat. #EC6175) which include gelatin as a substrate. Samples were loaded on gels in 62.5 mM Tris-HCl pH 6.8, 10% glycerol, 2% SDS and traces of bromophenol-blue. Gels were run in Tris/glycine-SDS running buffer, washed for 30 min. with renaturing buffer (Invitrogen) and for further 30 min. with developing buffer (Invitrogen). MMP activity was developed overnight at 37° C. with fresh developing buffer. The gels were then stained for one hour with Coomasie Blue (Brilliant Blue R, Sigma, cat. #B-8647) in 40% methanol and 7% acetic acid, and destained with 30% methanol/10% acetic acid. […] Band analysis was determined using the Kodak digital Science™ 1D Image Analysis Software. Treatments were performed in triplicates and were subjected to three separate zymogram gels.
C6 glioma cells were grown and treated as described above in Example 3, except that cells were stimulated with either 20 ng/ml TNFα (R&D, cat. #410-TRNC) or 0.1 μM Phorbol 12-myristate 13-acetate (PMA, Sigma, cat. #P-8139). […]
Assays were performed in triplicates and zymogram analysis was carried out as described above in Example 3. IC50 values for each of the tested DP-BAPTA compounds were calculated.
Target sequence in this assay (P50282 108-708): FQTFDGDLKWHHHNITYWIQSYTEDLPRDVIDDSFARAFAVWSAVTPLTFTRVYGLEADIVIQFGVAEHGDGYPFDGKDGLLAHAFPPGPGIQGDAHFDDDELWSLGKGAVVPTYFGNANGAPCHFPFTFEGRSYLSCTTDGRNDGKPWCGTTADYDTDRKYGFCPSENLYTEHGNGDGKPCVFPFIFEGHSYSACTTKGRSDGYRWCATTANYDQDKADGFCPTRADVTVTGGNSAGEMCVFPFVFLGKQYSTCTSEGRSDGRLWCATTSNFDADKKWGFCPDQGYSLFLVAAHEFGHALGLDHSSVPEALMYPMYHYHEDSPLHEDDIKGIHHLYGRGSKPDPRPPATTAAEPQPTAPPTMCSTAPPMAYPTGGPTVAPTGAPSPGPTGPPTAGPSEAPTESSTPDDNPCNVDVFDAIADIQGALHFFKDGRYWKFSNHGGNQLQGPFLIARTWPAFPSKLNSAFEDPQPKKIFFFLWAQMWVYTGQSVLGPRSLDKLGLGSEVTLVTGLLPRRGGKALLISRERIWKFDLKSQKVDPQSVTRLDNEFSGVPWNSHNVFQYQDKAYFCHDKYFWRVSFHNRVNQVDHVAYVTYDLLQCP

For assay [2], the target named is T2, MMP-2 (Rattus norvegicus, UniProt P33436).
T2 construct: each hemisphere of their brains was subjected separately to lysis and extracted for enzymatic activity; from tissue; host or cells: rat brain hemispheres (Sprague-Dawley, MCAO)
T2 sequence (P33436 110-662): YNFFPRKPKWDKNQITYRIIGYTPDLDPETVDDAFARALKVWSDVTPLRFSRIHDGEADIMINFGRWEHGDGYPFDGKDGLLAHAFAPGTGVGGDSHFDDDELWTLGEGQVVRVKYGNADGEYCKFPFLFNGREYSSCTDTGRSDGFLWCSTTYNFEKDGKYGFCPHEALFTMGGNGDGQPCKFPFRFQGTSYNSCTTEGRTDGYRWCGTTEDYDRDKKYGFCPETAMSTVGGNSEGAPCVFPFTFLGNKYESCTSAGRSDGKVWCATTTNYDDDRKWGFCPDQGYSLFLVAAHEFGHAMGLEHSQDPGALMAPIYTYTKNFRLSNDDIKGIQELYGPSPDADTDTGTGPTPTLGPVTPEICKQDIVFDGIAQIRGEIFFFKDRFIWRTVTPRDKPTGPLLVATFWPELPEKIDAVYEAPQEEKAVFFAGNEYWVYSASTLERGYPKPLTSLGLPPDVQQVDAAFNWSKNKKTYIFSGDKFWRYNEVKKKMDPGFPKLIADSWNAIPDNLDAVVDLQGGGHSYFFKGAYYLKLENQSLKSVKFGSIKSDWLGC
In words: MMP-2 activity in brain hemisphere lysates after unilateral MCAO (zymogram). It counts as in vivo. Particulars: SD rats, 2 h MCAO, 5 μg/kg i.p. single dose, sacrificed after 24 hrs.

In assay [3] the target is T1, MMP-9. Briefly: MMP-9 activity in brain hemisphere lysates after unilateral MCAO (zymogram). Also noted: each hemisphere of their brains was subjected separately to lysis and extracted for enzymatic activity; from tissue; host or cells: rat brain hemispheres (Sprague-Dawley, MCAO). It counts as in vivo. The note with it: SD rats, 2 h MCAO, 5 μg/kg i.p. single dose, sacrificed after 24 hrs. As for the experimental part:
Six Sprague-Dawley (SD) rats were subjected to unilateral (right hemisphere) Middle Cerebral Artery Occlusion (MCAO) for 2 hours. 5 μg/kg DP-b99 in 0.02% sodium citrate in saline was i.p. administered to three animals in a single dose, followed by 2 hrs. reperfusion. The other three animals were treated with vehicle instead of DP-b99. A rat that was only operated with no further treatment was used as a sham control.
The seven rats were sacrificed after 24 hrs. and each hemisphere of their brains was subjected separately to lysis and extracted for enzymatic activity. Brains were minced and solubilized in lysis buffer (25 mM Tris-HCl pH 7.5, 1% IGEPAL CA-630—a non-ionic detergent from Sigma, 100 mM NaCl, 0.5 U/ml aprotinin, 0.01% sodium azide) at a final concentration of 400 mg/ml. The preparations were incubated for 24 hrs. at 4° C. before lysates were centrifuged at 14,000 rpm for 15 min. and supernatants were collected.
Protein concentration was determined by the Bradford assay and 40 μg protein from each lysate were loaded on gelatin zymogram gels for determination of MMP-9 levels. Gels were developed for 48 hrs. Quantitative analysis of the gels was performed using the Kodak Digital System and Kodak 1D software as described in Example 3.
Target sequence in this assay (P50282 108-708): as the sequence (P50282 108-708) above

The target of assay [4] is T1, MMP-9. Briefly: MMP-9 zymogram of conditioned media from primary cortical glial cells (basal and TNFα-induced). It is filed as cell-based. Further details: endogenous in cells; host or cells: primary cortical glial cells from rat embryos. Particulars: 25 μM compound. As for the experimental part:
Cortical glial cells from rat embryos (day 18 of pregnancy) were seeded on poly-D-lysine coated 24-well plates with MEM medium containing 5% FCS, 5% HS, 2 mM 1-glutamine and 0.6% glucose, at a density of 5×10^4 cells/well. After 4 days in culture, the medium was changed to MEM+10% FCS. When glial cells reached confluence (around 17 days after plating), they were exposed for 24 hours to 10 ng/ml or 20 ng/ml human TNFα in order to induce MMP-9. The induction was performed either in the absence or presence of 25 μM DP-b99 (dilution 1:200 with medium from a stock of 5 mM in sodium citrate buffer) in a serum-free medium containing 5 mg/ml BSA (essentially fatty acid free). Conditioned media (CM) were collected and 12 μl of each of the triplicates was subjected to separate zymogram gels, as described above in Example 3.
A quantitative analysis of the MMP-9 bands, representing the pro- and active forms of the enzyme, was performed on the triplicate zymograms. The results were normalized to percentage of control values (=100%) and are depicted in FIGS. 3B and 3C that represent, respectively, the biologically active- and pro-MMP-9 forms of the enzyme.

Assay [5] concerns calpain. Briefly: Calpain-cleaved spectrin in brain hemispheres after transient MCA occlusion. It is filed as in vivo, rat. Particulars: SD rats, 2 h MCAO, 5 μg/kg i.p. at start of reperfusion. As for the experimental part:
Transient middle cerebral artery (MCA) occlusion was performed in male Sprague Dawley (SD) rats by applying 4-0 silicone-coated nylon monofilament through external carotid artery. The animals were anesthetized with 4% halothane and maintained at 1.5% halothane in a 1:2 mixture of nitrous oxide and oxygen without tracheotomy and allowed to breathe spontaneously. Via a ventral cutaneous the common, right external and internal carotid arteries (ECA) were exposed. A suture was introduced into a ligated right external carotid artery, in a retrograde fashion towards the carotid bifurcation. It was then directed distally up to the right internal carotid artery to a distance of 20 mm from the carotid bifurcation to […] occlude the origin of the MCA. It was secured with silk ligatures. Two hours after occlusion the monofilament was withdrawn to allow reperfusion and the cutaneous wound was sutured and cleaned. The whole procedure took about 25 min., with rectal temperature maintained throughout at 37° C. […]
Assay for Calpain activity: Each hemisphere was separately lysed by homogenization on ice in 5 ml RIPA buffer (50 mM Tris pH 7.5; 150 mM NaCl; 0.5% DOC; 1% Triton X-100; 0.1% SDS; 1 mM Nappi; 2 mM EDTA) plus protease inhibitors (Bohringer, Manheim, Germany). […] Quantitation of the bands was performed using the Kodak 1D software. […]

Assay [6] deals with T3, MMP-9 (Homo sapiens, UniProt P14780).
T3 construct: endogenous in cells; host or cells: A-172 human glioma cells (ATCC CRL-1620)
T3 sequence (P14780 107-707 limits assumed): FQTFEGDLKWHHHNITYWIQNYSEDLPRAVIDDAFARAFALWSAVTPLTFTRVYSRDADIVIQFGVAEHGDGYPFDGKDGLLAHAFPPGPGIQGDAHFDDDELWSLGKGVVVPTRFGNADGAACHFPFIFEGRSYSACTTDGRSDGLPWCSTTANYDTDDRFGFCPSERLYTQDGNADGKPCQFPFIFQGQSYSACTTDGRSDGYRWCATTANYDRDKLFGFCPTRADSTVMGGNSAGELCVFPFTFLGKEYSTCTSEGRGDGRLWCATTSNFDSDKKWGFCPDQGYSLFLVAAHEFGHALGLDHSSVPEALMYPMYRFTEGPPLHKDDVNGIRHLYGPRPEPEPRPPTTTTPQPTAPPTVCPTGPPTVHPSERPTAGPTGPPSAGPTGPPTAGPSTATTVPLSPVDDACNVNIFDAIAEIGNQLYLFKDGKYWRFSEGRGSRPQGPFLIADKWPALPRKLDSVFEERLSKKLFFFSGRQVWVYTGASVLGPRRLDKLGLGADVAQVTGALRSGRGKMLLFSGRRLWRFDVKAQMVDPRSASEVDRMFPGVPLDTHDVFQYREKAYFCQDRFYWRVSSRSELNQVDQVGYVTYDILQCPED
In words: MMP-9 activity assay (BioTrak) in conditioned media of TNFα-treated A-172 glioma cells. It counts as cell-based. The note with it: A-172 cells, 10 ng/ml TNFα, 20 or 50 μM compound. On the procedure: (§1) A-172 human glioma cells (ATCC; CRL-1620) were grown and treated with 10 ng/ml TNFα in the presence of 0, 20 or 50 μM DP-b109 following the procedure as described above in Example 3. Cells treated with vehicle without the TNFα treatment, served as control groups.
(§2) CM from each treatment group was collected and subjected to zymogram gels (see procedure in Example 3), to MMP-9 immunoassay and to MMP-9 activity assay.
MMP-9 activity was assayed using the MMP-9 activity assay system (BioTrak™, Amersham, U.K., Cat. # RPN 2634), which quantifies the amount of the active MMP-9 form (see BioTrak kit instructions).

Assay [7] concerns MMP-9. In words: Total MMP-9 protein immunoassay (Quantikine) in conditioned media of TNFα-treated A-172 glioma cells. Particulars: A-172 cells, 10 ng/ml TNFα, 20 or 50 μM compound. It counts as cell-based, human. On the procedure: as §1, §2
The total amount of MMP-9 protein was determined by immunoassay using the Quantikine™ (R&D Systems, U.S.A., Cat # DMP900) kit and following the manufacturer's instructions.

These results are taken from US7799831B2, “Lipophilic diesters of chelating agent for inhibition of enzyme activity” (D-Pharm Ltd., priority 2002, dated 2010).

As for `O=C(O)CN(CC(=O)O)c1ccccc1OCCOc1ccccc1N(CC(=O)O)CC(=O)O` [BAPTA, 1,2-bis(2 aminophenoxy)ethane-N,N,N′,N′-tetraacetic acid], in assay [1], the “Effect on MMP-9 activity” value is given as “did not affect the MMP-9 activity”.

For `CC(=O)OCOC(=O)CN(CC(=O)OCOC(C)=O)c1ccccc1OCCOc1ccccc1N(CC(=O)OCOC(C)=O)CC(=O)OCOC(C)=O` [BAPTA-AM, 1,2-bis(2-aminophenoxy)ethane-N,N,N′,N′-tetra-acetic acid acetoxymethyl ester], in assay [1], the “Effect on MMP-9 activity” value is “increased rather than decreased the MMP-9 activity”. Also, the “Effect on TNFα-induced MMP-9 activity” value in assay [1] (C6 glioma cells, 20 ng/ml TNFα, compounds at 1, 5, 10 and 20 μM, zymogram) is on record as “Increased”.

On to `CCCCCCCCOCCOC(=O)CN(CC(=O)O)c1ccccc1OCCOc1ccccc1N(CC(=O)O)CC(=O)OCCOCCCCCCCC` [DP-b99, 1,2-bis(2-aminophenoxy)ethane, N,N′-di(2-octoxyethyl acetate), N,N′-diacetic acid], for which the MMP-2 activity level entry in assay [2] was “unaffected”. Also, the “MMP-9 activity R/L ratio (injured/intact hemisphere)” value in assay [3] came to 3.0. For the same compound, in assay [4] (10 or 20 ng/ml TNFα), the “Active MMP-9 form, TNFα treated cells” value was “reduced” and the “Pro-MMP-9 form, TNFα treated cells” value is given as “reduced”. In assay [4] (no TNFα), the “Active MMP-9 band, un-stimulated cells” value is on record as “abolished” and the “Pro-MMP-9 band intensity, un-stimulated cells” value is “increased the band intensity”. Moreover, the “Increase in cleaved spectrin over the sham-operated values” in assay [5] is on record as “about 50%”. For the same compound, the “Cleaved spectrin (R/L hemisphere)” value in assay [5] (sacrificed four hours later, n=2) came to 1.42 ± 0.08.

Consider `CCCCCCCCCCCCCCCCCCOCCOC(=O)CN(CC(=O)O)c1ccccc1OCCOc1ccccc1N(CC(=O)O)CC(=O)OCCOCCCCCCCCCCCCCCCCCC` [DP-b109, 1,2-bis(2-aminophenoxy)ethane, N,N′-di(2-octodecyloxyethyl acetate), N,N′-diacetic acid], for which the “TNFα-induced increase in active MMP-9” value in assay [6] is on record as “reduced to the baseline level”. Moreover, the “Level of total MMP-9 protein in conditioned media” value in assay [7] is “reduces, in a dose-dependent fashion”.
